Here are results for one molecule from paper PMC5113665, “HF‐Free Boc Synthesis of Peptide Thioesters for Ligation and Cyclization” (Angewandte Chemie (International Ed. in English), 2016).

SMILES strings stand for the structures. Non-standard residues stand in square brackets, D forms with d. Residues, ends and D or L forms follow the SMILES beside them. Phe(4-F) = N[C@@H](Cc1ccc(F)cc1)C(=O)O; d2Nal = N[C@H](Cc1ccc2ccccc2c1)C(=O)O; dNle = CCCC[C@@H](N)C(=O)O

The test has as its target T1, KRAS-GTPγS (Homo sapiens, UniProt P01116).
T1 construct: proteins (amino acids 1-185) were; GST (N, cleaved yes); made in house; host or cells: Escherichia coli BL21
In words: Microscale thermophoresis binding to labeled KRAS-GTPγS. As to conditions: 25 °C, NT-647 labelled protein, GTPγS-loaded, average of three measurements, read-out: affinity for labeled KRAS-GTPγS. The source says: Cyclization in acetonitrile in the presence of an aqueous imidazole solution gave good results (Figure S23, SI). […] The binding was characterized by microscale thermophoresis studies (Figure 4 D).
VI. Biological analysis of Cyclorasin 9A5
Protein Expression and Purification material and methods:
Human wt-K-Ras and oncogenic K-Ras_G12V proteins (amino acids 1-185) were cloned in pGEX-6P-1 vector that encodes a glutathione S-transferase (GST) tag at the N-terminal of the expressed protein. The constructs were transformed in Escherichia coli BL21 cells – the cells were grown in Luria Broth (LB) media in the presence of 0.1 mg mL-1 ampicillin at 37 °C to an OD 700 then induced by the addition of 0.1 mM IPTG. The bacterial culture was then incubated overnight at 18 °C and harvested the second day by centrifugation. […]
Microscale thermophoresis (MST) measurements were performed using a NanoTemper Monolith™ NT.115 instrument (NanoTemper Technologies GmbH, München, Germany). […] Labeling levels (generally in the range 0.3-0.4 dye molecules per protein) were determined using calculated extinction coefficients and e647 = 250,000 M-1cm-1 for the dye concentration. […]
GTPγS (B) and K-Ras-G12V_ GDP (D). The Kd values for each interaction were calculated as an average of three measurements. […]
In general terms: MST reads how a fluorescent partner responds to local heating, with and without ligand.

T1 sequence (P01116 1-185 isoform P01116-2): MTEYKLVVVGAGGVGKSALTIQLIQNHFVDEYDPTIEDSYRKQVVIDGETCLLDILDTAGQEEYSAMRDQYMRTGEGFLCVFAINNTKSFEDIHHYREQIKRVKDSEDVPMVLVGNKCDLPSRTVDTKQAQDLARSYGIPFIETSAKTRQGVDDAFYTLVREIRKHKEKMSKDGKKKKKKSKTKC

Regarding `CCCC[C@H]1NC(=O)[C@H](Cc2ccc(F)cc2)NC(=O)[C@H](CCCNC(=N)N)NC(=O)[C@@H](Cc2ccc3ccccc3c2)NC(=O)[C@H](CCCNC(=N)N)NC(=O)[C@H](CCCNC(=N)N)NC(=O)[C@H](CCCNC(=N)N)NC(=O)[C@@H](C)NC(=O)[C@H]([C@@H](C)O)NC(=O)[C@H](Cc2c[nH]c3ccccc23)NC(=O)[C@H](CCC(N)=O)NC1=O` [cyclorasin 9A5] (cyclo(WT[dA]RRR[d2Nal]R[Phe(4-F)][dNle]Q)), the Kd stood at 0.6 µM.
